# Data as given in patent US10954235B2, “Crystalline forms of valbenazine salts” (Sandoz AG, priority 2017, dated 2021).
# Experiment: Differential scanning calorimetry (DSC), thermal stability
# Assay type: physicochemical
# Details: heating rate 10 K/min; judged from first endotherm
# Procedure: Differential scanning calorimetry (DSC) was performed with a DSC 7 (Perkin-Elmer, Norwalk, Conn., USA) using a Pyris 2.0 software. 4.7307±0.0005 mg sample (using a UM3 ultramicrobalance, Mettler, Greifensee, CH) were weighed into Al-Pans (25 microliter) and sealed with a cover, which was perforated by a needle. The sample was heated at a rate of 10 K/min. Dry nitrogen was used as the purge gas (purge rate: 20 mL/min). Differential scanning calorimetry (DSC) was performed with a DSC 7 (Perkin-Elmer, Norwalk, Conn., USA) using a Pyris 2.0 software. 7.115±0.0005 mg sample (using a UM3 ultramicrobalance, Mettler, Greifensee, CH) were weighed into Al-Pans (25 microliter) and sealed with a cover, which was perforated by a needle. The sample was heated at a rate of 10 K/min. Dry nitrogen was used as the purge gas (purge rate: 20 mL/min).
smiles,measurement,value
"COc1cc2c(cc1OC)[C@H]1C[C@@H](OC(=O)[C@@H](N)C(C)C)[C@H](CC(C)C)CN1CC2 [Example 1, ((S)-(2R,3R,11bR)-3-isobutyl-9,10-dimethoxy-2,3,4,6,7,11b-hexahydro-1H-pyrido[2,1-a]isoquinolin-2-yl 2-amino-3-methylbutanoate) ditosylate]",stability against temperature stress (DSC),very stable against temperature stress
